Calls of active or inactive are those of the source. The calls are words filed in the database; no cut-off is given here.
Columns and labels:
[1] = target: T1, Cytohesin-2 (Homo sapiens) (UniProt Q99418); test: Binding affinity to human Arno Sec7 domain immobilized on CAP sensor chip at 250 uM by surface plasmon resonance analysis
T1 sequence (whole entry): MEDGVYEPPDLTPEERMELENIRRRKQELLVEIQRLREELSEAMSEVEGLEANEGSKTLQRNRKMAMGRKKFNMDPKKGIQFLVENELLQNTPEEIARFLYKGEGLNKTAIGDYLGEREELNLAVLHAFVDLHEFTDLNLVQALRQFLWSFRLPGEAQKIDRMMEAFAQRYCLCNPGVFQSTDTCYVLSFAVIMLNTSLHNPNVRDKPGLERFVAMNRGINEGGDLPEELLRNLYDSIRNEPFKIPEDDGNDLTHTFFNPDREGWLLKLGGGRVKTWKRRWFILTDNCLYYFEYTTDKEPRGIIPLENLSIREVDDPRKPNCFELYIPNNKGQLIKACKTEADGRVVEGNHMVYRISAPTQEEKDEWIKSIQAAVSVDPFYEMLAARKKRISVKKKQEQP

[2] = target: T1, Cytohesin-2 (Homo sapiens); test: Binding affinity to human Arno Sec7 domain immobilized on CAP sensor chip at 1 mM after 15 mins by […]
[3] = target: T1, Cytohesin-2 (Homo sapiens); test: Inhibition of human Alexa 488 labeled Arno Sec7 domain-mediated promiscuous aggregator activity in delta17 Arf1 (17 to 181) at 1 to 100 uM by fluorescence anisotropy assay
[4] = target: T1, Cytohesin-2 (Homo sapiens); test: Inhibition of human Arno Sec7 domain-mediated nucleotide exchange in delta17 Arf1 (17 to 181) at 2 mM by BODIPY-GTP based time resolved fluorescence assay relative to control
[5] = target: T1, Cytohesin-2 (Homo sapiens); test: Inhibition of human Arno Sec7 domain-mediated nucleotide exchange in delta17 Arf1 (17 to 181) at 1 mM by BODIPY-GTP based time resolved fluorescence assay relative to control
Cytohesin-2 [6] = target: T2, Cytohesin-2 (Homo sapiens, UniProt Q99418); test: Inhibition of human Arno Sec7 domain-mediated nucleotide exchange in delta17 Arf1 (17 to 181) by BODIPY-GTP based time resolved fluorescence assay; settings: read-out: Ki(app)
T2 sequence (Q99418 whole entry): T1 sequence (whole entry)

[7] = target: T1, Cytohesin-2 (Homo sapiens); test: Inhibition of human Arno Sec7 domain […] delta17 Arf1 (17 to 181) at 1 mM after 15 mins by BODIPY-GTP based time resolved fluorescence assay relative to control
Cytohesin-2 [8] = target: T2, Cytohesin-2; test: Binding affinity to human Arno Sec7 domain immobilized on CAP sensor chip after 15 mins by […]
[9] = target: T1, Cytohesin-2 (Homo sapiens); test: Inhibition of human Alexa 488 labeled Arno Sec7 domain-mediated promiscuous aggregator activity in delta17 Arf1 (17 to 181) at 100 uM by fluorescence anisotropy assay
[10] = target: T1, Cytohesin-2 (Homo sapiens); test: Inhibition of human Alexa 488 labeled Arno Sec7 domain-mediated promiscuous aggregator activity in delta17 Arf1 (17 to 181) at >20 uM by fluorescence anisotropy assay

For `CCN(CC)Cc1cc(NC(C)=O)ccc1O`, the Activity [1] was “Active” and the Activity [2] was “inactive”.
With `Cc1c(C(N)=O)sc(N)c1C(=O)OC(C)C` the Activity [1] was “inactive”, the Activity [2] was “Active” and the inhibition [3] was “inactive”. For the same molecule, the inhibition [4] was 37.9%.
`Cc1cc(C)c(S(=O)(=O)Nc2ccc(O)cc2C)c(C)c1` was tested, and the inhibition [5] was 51.5% and the Ki (Cytohesin-2 [6]) was 0.98 mM.
Work on `Cc1ccc(S(=O)(=O)Nc2cc(C)c(O)cc2C)cc1` yielded an inhibition [5] of 66.7%.
In the case of `Cc1cc(O)ccc1NS(=O)(=O)c1cccs1`, the Activity [1] is reported as “Active”, the Activity [2] is reported as “Active” and the inhibition [3] is reported as “inactive”. For the same molecule, the inhibition [4] was 16.4%.
Work on `Cc1ccc(S(=O)(=O)Nc2c(C)cc(O)cc2C)cc1` yielded an inhibition [5] of 32.7% and a Ki (Cytohesin-2 [6]) of 1.91 mM.
With `Cc1cc(O)cc(C)c1NS(=O)(=O)c1ccccc1` the inhibition [7] was 30%, the Kd (Cytohesin-2 [8]) was 0.5 mM and the Activity [1] was “Active”. For the same molecule, the Activity [2] was “Active”, the inhibition [3] was “inactive” and the Ki (Cytohesin-2 [6]) was 3.72 mM. It also gave an inhibition [4] of 34.6%.
`Cc1ccc(C)c(-c2csc(N)n2)c1` was tested, and the Activity [1] was “Active”, the Activity [2] was “Active” and the inhibition [3] was “inactive”. For the same molecule, the inhibition [4] was 22.6%.
In the case of `O=C1CNC(=O)N1C12CC3CC(CC(C3)C1)C2`, the Activity [1] is reported as “Active” and the Activity [2] is reported as “inactive”.
In the case of `Cc1cc(O)cc(C)c1NC(=O)c1cccc([N+](=O)[O-])c1`, the Activity [2] is reported as “Active” and the inhibition [4] is reported as 16%.
`Cc1cc(NS(=O)(=O)c2ccccc2)cc(C)c1O` gave a Ki (Cytohesin-2 [6]) of 5.12 mM and an inhibition [4] of 31.2%.
In the case of `O=S(=O)(Nc1ccccc1O)c1ccccc1`, the inhibition [5] is reported as 21.6% and the Activity [2] is reported as “inactive”.
Molecule `COc1ccc(S(=O)(=O)Nc2c(C)cc(O)cc2C)cc1` has an inhibition [7] of 35%, an inhibition [5] of 32.1% and a Ki (Cytohesin-2 [6]) of 1.61 mM.
In the case of `Cc1cc(O)cc(C)c1NS(=O)(=O)c1ccc([N+](=O)[O-])cc1`, the inhibition [5] is reported as 58.4%, the Activity [2] is reported as “Active” and the Ki (Cytohesin-2 [6]) is reported as 0.54 mM.
For `CC(C)(C)c1ccc(C(=O)NCc2ccco2)cc1`, the inhibition [9] was “Active”.
In the case of `Cc1c(O)ccc(NS(=O)(=O)c2ccccc2)c1C`, the inhibition [4] is reported as 24.2%.
For `Clc1ccccc1C(c1ccccc1)(c1ccccc1)n1ccnc1`, the inhibition [10] was “Active”.
For `COc1cc(C(=O)Nc2c(C)cc(O)cc2C)cc(OC)c1OC`, the Activity [2] was “Active” and the inhibition [4] was 9.9%.
